Activity calls are given as the source filed them. No stated cut-off is given here; in the data, actives have a measured IC50 and inactives only a lower limit.

In the assay the target is Envelope glycoprotein gp160 (Human immunodeficiency virus 1, UniProt Q6QLK5). Nature of the assay: inhibitors of HIV fusion peptide binding, primary screen, biochemical, uHTS, fluorescence dequenching (AID 1986).
Chain of Envelope glycoprotein gp160 (Q6QLK5 whole entry, the tested form may be a part): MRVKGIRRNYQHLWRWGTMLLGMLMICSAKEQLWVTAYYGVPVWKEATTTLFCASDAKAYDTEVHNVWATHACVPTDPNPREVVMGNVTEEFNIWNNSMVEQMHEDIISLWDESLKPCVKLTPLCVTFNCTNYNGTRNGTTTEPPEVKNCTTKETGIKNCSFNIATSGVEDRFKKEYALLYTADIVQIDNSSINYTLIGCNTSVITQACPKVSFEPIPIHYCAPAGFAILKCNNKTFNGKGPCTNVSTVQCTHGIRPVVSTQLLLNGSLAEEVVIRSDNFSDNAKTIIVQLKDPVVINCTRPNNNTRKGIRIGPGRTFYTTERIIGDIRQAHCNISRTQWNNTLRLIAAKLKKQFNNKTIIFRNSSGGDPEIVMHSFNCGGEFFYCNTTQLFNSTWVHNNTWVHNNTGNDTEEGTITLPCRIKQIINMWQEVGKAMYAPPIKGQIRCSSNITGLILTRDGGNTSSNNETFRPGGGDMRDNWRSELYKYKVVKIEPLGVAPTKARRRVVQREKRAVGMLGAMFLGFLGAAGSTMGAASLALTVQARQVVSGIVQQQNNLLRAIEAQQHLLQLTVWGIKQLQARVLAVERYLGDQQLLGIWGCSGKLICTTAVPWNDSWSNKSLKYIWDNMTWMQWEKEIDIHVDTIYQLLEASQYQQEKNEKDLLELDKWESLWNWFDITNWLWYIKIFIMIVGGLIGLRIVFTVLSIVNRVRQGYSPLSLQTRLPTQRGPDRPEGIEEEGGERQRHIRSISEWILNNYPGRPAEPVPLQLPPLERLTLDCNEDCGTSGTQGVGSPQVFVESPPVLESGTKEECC
As a reminder, the IC50 is the concentration at which inhibition is half-maximal. In the case of `CCCOc1ccc(C(=O)NNC(=S)NC(=O)c2cc(-c3ccc(Cl)cc3)nc3ccccc23)cc1`, the IC50 was 19.9 µM (active).
In the case of `O=C1/C(=C2\C(=O)N(Cc3ccc(F)cc3)c3ccccc32)SC(=S)N1CCS(=O)(=O)O`, the IC50 is 15 µM (active).
Regarding `CCOc1cc(/C=N/NC2=NC(=O)C(CC(=O)O)S2)ccc1OCc1ccc(Cl)cc1` (stereo not drawn), the IC50 was 24.6 µM (active).

Values taken from ChEMBL document CHEMBL1201862, “PubChem BioAssay data set” (2004).
